Measured values taken from the METLIN SMRT retention time set (Domingo-Almenara et al. 2019).

Test: gradient 5% acetonitrile 3 min, to 50% in 2 min, to 85% in 15 min, held 3 min, 100 µL/min
Conditions: column: Zorbax Extend-C18 2.1 x 50 mm; eluents: water / acetonitrile, 0.1% formic acid
In short: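 Retention times of pure standards were taken from adduct peaks that were selected by computer and manually inspected. Over 3 months, mixtures of ~100 molecules were run by HPLC–quadrupole time-of-flight mass spectrometry in positive and negative ionization mode. The Zorbax Extend-C18 column (2.1 × 50 mm, 1.8 μm) ran at 100 μL/min in water and acetonitrile, each containing 0.1% formic acid, with 40 μL dead volume and 900 μL dwell volume.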

RP-LC retention time [s]	SMILES
635	Cc1cc2c(cc1NC(=O)c1ccco1)n(C)c(=O)n2C
608	Cc1ccccc1CNC(=O)C1CCN(CCc2cn(C)c3ncccc23)CC1
747	CN(C)S(=O)(=O)c1ccc(C(=O)N2CCC(c3nnc(C(F)(F)F)o3)CC2)cc1
1100	CC(C)c1noc(-c2cc(=O)n(CC(=O)Nc3ccc(F)c(Cl)c3)c3ccccc23)n1
870	CC(C)n1c(N2CCN(C(=O)c3ccc(Br)o3)CC2)cc(=O)n(C(C)C)c1=O
598	CN(C)C(=O)c1cc2c(s1)CCC(C(=O)NC1CCN(Cc3ccccc3)CC1)C2 (stereo not drawn)
1010	COc1cc(NC(=O)C2CCN(c3c(C(=O)N4CCC(C)CC4)cnc4snc(C)c34)CC2)cc(OC)c1
942	CCOc1ccc(NC(=O)N(C)CCc2noc(C3CCCCC3)n2)cc1
1350	c1ccc(-n2ncc3c(Nc4ccc5c(c4)OCO5)nc(N4CCCC4)nc32)cc1
1010	CCC(C(=O)NC1(c2nc(-c3cccnc3)no2)CCCCC1)c1ccccc1 (stereo not drawn)
806	CN(C)C(=O)c1cnn(-c2cccc(F)c2)c1-n1cccc1
1220	COc1cccc(C2Cn3nnc(-c4nc(-c5ccc(Cl)cc5)no4)c3CO2)c1 (stereo not drawn)
777	Cn1nc(-c2nc(Cc3ccccc3)no2)c2c1CCN(C(=O)C1CCCO1)C2 (stereo not drawn)
700	COC(=O)c1ccc(NC(=O)C2CC(=O)N(c3ccc4c(c3)CCN4C(C)=O)C2)cc1 (stereo not drawn)
726	Cn1cc(C(CNC(=O)Nc2ccccc2Cl)c2cccnc2)c2ccccc21 (stereo not drawn)
697	O=C(Nc1cccc(F)c1)Nc1cccc(-c2ccc(N3CCOCC3)nn2)c1
634	CCc1nc(N)n(CC(=O)NCc2ccc(F)cc2)c(=O)c1C
949	Cc1ccc(Cl)cc1NC(=O)c1[nH]c(C)c(S(=O)(=O)N2CCCC2)c1C
720	Cc1c(-c2ccc(O)cc2)n(Cc2ccc(OCCN3CCCCCC3)cc2)c2ccc(O)cc12
633	CCN(CC)CCNC(=O)c1cc2cc(S(=O)(=O)N(C)C)ccc2n1CC
1350	CCCCCn1c(=O)c2ccccc2n(Cc2nc(-c3ccc(C)cc3)no2)c1=O
1090	Cc1cc(=O)n(CC(=O)Nc2ccc(F)c(Cl)c2)c(-c2ccccc2)n1

RP-LC retention time [s]	SMILES
840	CCC(=O)N(C1CCOCC1)C1CCN(S(=O)(=O)c2ccccc2Cl)CC1
772	CC(=O)N1CCc2cc(N3CC(C(=O)Nc4cc(F)cc(F)c4)CC3=O)ccc21 (stereo not drawn)
1110	COc1cc(NC(=O)Nc2nccn(-c3ccc(C(C)C)cc3)c2=O)cc(OC)c1
612	NS(=O)(=O)c1ccc(CCNC(=O)c2n[nH]c3ccccc23)cc1
655	Cn1cc(CN2CCN(C(=O)C3CCN(S(=O)(=O)N4CCCC4)CC3)CC2)c2ccccc21
788	CCc1cccc(C)c1Nc1c(-c2ccc(OC)cc2)nc2ncccn12
1050	CCc1cccc(NC(=O)N2CCc3cn(CC)c4cccc(c34)C2)c1
610	Cc1cc(C)n(-c2ccnc(N3CCN(C(C)C)CC3)n2)n1
799	CN(C)c1cccc(C(=O)N2CCN(C(=O)c3nnn4c3COC(c3ccccc3)C4)CC2)c1 (stereo not drawn)
842	Cc1ccc(NC(=O)C2CCCN2S(=O)(=O)c2cc3c(cc2C)NC(=O)C(C)O3)cc1C (stereo not drawn)
733	CCc1noc([C@@H]2CC(F)(F)CN2C(=O)c2cocn2)n1
616	Cc1nc(-c2csc(S(=O)(=O)N3CCC(C(=O)N4CCN(C)CC4)CC3)c2)no1
689	CCn1ccc(C(=O)N2CCN(c3cc(-c4ccccc4)[nH]n3)CC2)n1
837	CC(NC(=O)Cn1cc(C(=O)c2ccco2)c2ccccc21)c1ccc2c(c1)OCCCO2 (stereo not drawn)
1040	COc1cccc(C2=NN(C(C)=O)C(c3ccc(Br)cc3)O2)c1OC(C)=O (stereo not drawn)
583	COc1ccc2c(c1)CCN(C(=O)CNC(=O)c1ccc(=O)[nH]c1)C2
581	NC(=O)Cn1c(CCc2ccccc2)nc2ccccc21
872	COc1cc(NC(=O)CN2C(=O)C(O)(c3ccccc3)c3ccccc32)cc(OC)c1 (stereo not drawn)
739	CCc1ccc(N2CC(c3nc4ccccc4n3CC(=O)N3CCCC3)CC2=O)cc1 (stereo not drawn)
938	O=c1c2scc(-c3ccc(Br)cc3)c2ncn1Cc1ccccn1
709	COc1ccc(-c2nc3ncccn3c2NCc2ccc(C)cc2)cc1OC
886	CCCc1cc(N2CCN(c3ccccn3)CC2)n2ncc(-c3ccccc3)c2n1

RP-LC retention time [s]	SMILES
929	COCCc1noc(C2Cc3ccccc3N2C(=O)Nc2cc(OC)cc(OC)c2)n1 (stereo not drawn)
959	Cc1cc(C)c(CNC(=O)C2CCN(c3cnc(N4CCSCC4)nc3)CC2)c(C)c1
738	CCN1C(=O)C(CC(=O)NCCC(C)C)Sc2ncccc21 (stereo not drawn)
838	Cc1cc(C)cc(C(=O)Nc2cc(-c3cccnc3)no2)c1
962	O=C(CN1C(=O)CCCc2cc(S(=O)(=O)N3CCCCCC3)ccc21)Nc1ccc(F)cc1F
846	Cc1ccc(Cl)cc1NC(=O)C1CCN(S(=O)(=O)c2cc(C(=O)N(C)C)cs2)CC1
920	COc1ccc(-c2noc(Cn3ccn(-c4cc(C)ccc4C)c(=O)c3=O)n2)cc1
743	CCOc1ccccc1NC(=O)Cn1cnc2nc(N3CCCC(C(=O)NC(C)C)C3)sc2c1=O (stereo not drawn)
758	CCc1noc(NC(C)=O)c1-c1ccc(OC)c(S(=O)(=O)NCc2ccc(OC)cc2)c1
866	O=C(c1csc(-c2cnccn2)n1)N1CCN(c2ccccc2Cl)CC1
754	CN(CC1CCOCC1)C(=O)Nc1cc(F)cc(F)c1
656	CC(C)OCCCNC(=O)c1ccc2cnn(Cc3ccc(F)cc3)c2c1
850	CC(C)Cn1cc(CCNC(=O)c2cc3ccccc3[nH]2)c2cccnc21
584	COC(=O)c1c(C)[nH]c(C(=O)N2CCC(CC(=O)NCCN3CCOCC3)CC2)c1C
668	Cc1nccn1Cc1nc(-c2ccc(F)c(Br)c2)no1
894	Cc1cc(NC(=O)Nc2cc(F)ccc2F)no1
935	Cc1cc(C)n(-c2ccnc(N3CCC(C(=O)N4CCc5ccccc5C4)CC3)n2)n1
679	CCOC(=O)C1=C(CN2CCCCCC2)NC(=O)NC1c1ccc(OC(C)C)cc1 (stereo not drawn)
604	CC(C)(C)n1nnnc1C1CC2(CCOCC2)C(=O)N1CCc1nc2ccccc2[nH]1 (stereo not drawn)
754	Cc1ccc2ncn(C3CCN(C(=O)Nc4ccccc4C)CC3)c(=O)c2c1
1010	COC(=O)c1cc2c(=O)n(-c3cc(Cl)cc(Cl)c3)ccc2nc1C
758	CCCN1C(=O)Cc2ccccc2C1C(=O)NCc1cccs1 (stereo not drawn)

RP-LC retention time [s]	SMILES
736	Cc1ccc(-c2nnc3ccc(N4CCC(C(=O)NC5CC5)CC4)nn23)cc1
864	O=c1c2cc(-c3ccc(F)cc3)nn2ccn1CC(O)c1ccc2c(c1)OCO2 (stereo not drawn)
629	N#Cc1ccc(C(=O)NC2CCN(C(=O)C3CC3)C2)cc1 (stereo not drawn)
704	COc1ccc(NC(=O)c2c(C)oc3nc(C)nc(N4CCCC4)c23)cc1
743	COc1ccc2c(=O)c3c(=O)n(Cc4ccccc4)c(-c4cccs4)nc3oc2c1
1050	CCOc1ccc(-c2ccc(=O)n(Cc3nc(-c4ccc5c(c4)OCO5)no3)n2)cc1
1130	COc1ccc(-c2nc(CN(c3ccccc3)S(=O)(=O)c3cccs3)c(C)o2)cc1
785	Cc1nc(Oc2ccccc2)cc(N2CCN(C(=O)c3c(F)cccc3F)CC2)n1
683	CC1CN(CC(=O)N2CCN(c3ccccn3)CC2)c2ccccc2S1 (stereo not drawn)
930	O=C(C1CCN(c2ncnc3c2oc2ccccc23)CC1)N1CCN(c2ccccc2Cl)CC1
827	CCC(=O)N1CCCc2ccc(NC(=O)c3cccs3)cc21
584	COc1ccc2nc(CN3CCN(S(=O)(=O)c4cccs4)CC3)[nH]c2c1
728	CCOc1ccc(C(c2c(O)cc(C)n(CCOC)c2=O)N2CCN(c3ccccn3)CC2)cc1 (stereo not drawn)
578	CCN1CCN(C(=O)C2Cc3cc(S(=O)(=O)N4CCOCC4)ccc3N2C(C)=O)CC1 (stereo not drawn)
1250	Cc1cc(NC(=O)c2nc(C(C)C)oc2C)ccc1Cl
867	O=C(NCc1cccc(Br)c1)c1cn2nc(Cl)ccc2n1
609	CC(=O)N1C[C@@H](C(=O)NCCc2c(C)noc2C)[C@H](c2nc(C)no2)C1
866	CC(C)(C)CC(=O)Nc1ccc2c(c1)N(C(=O)c1ccco1)CCC2
893	Cc1ccc(Cn2c(=O)c(SCC(=O)NC3CC3)nc3ccccc32)cc1
830	CCC(=O)Nc1ccc(S(=O)(=O)NCCOc2ccc3c(c2)OCO3)cc1

SMILES	RP-LC retention time [s]
Cc1ccc(C(=O)N2[C@H]3CC[C@@H]2c2cnc(-c4ccccc4)nc2C3)cn1	689
CC(C)(C)n1cc(C(=O)c2ccccc2)cc1-c1ccccc1	1350
